Measured values from US9062041B2 (Bayer Intellectual Property GmbH, priority 2011, dated 2015).

Columns and labels:
Type in all cases: cell-based
[1] = biological target: EP4 subtype of the human PGE2 receptor (Homo sapiens, UniProt P35408); assay: cAMP antagonism test on the human EP4 receptor (HTRF cAMP detection); conditions: selectivity towards hEP4, IC50 measured by cAMP antagonism test
Outline: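 Competitive HTRF cAMP read-out (cAMP-d2 vs Eu-cryptate anti-cAMP antibody, 665/620 nm ratio) on lysed human EP4 cells. Compound (0.8 nM–16.5 μM) applied 20 min at RT before 60 min PGE2 challenge (3× solution 0.3 nM, IBMX present); 20 min lysis precedes reading.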

[2] = biological target: EP2 subtype of the human PGE2 receptor (Homo sapiens, UniProt P43116); assay: cAMP antagonism test on the human EP2 receptor (HTRF cAMP detection); conditions: hEP2 receptor, read-out: Antagonism hEP2 IC50
Sequence of EP2 subtype of the human PGE2 receptor (P43116 whole entry): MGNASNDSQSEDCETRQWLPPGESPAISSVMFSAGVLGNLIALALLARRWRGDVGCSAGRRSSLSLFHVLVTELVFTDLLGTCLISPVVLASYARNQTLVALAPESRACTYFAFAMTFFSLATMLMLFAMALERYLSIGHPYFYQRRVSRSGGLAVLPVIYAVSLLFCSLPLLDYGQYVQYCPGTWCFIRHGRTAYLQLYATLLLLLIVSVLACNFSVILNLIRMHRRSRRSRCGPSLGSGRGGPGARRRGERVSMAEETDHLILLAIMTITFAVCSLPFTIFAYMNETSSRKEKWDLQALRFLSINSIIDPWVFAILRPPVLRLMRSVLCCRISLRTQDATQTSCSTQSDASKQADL
Outline: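 Read-out is a competitive HTRF for cAMP: lysate cAMP displaces cAMP-d2 from Eu cryptate-labelled antibody, and antagonism raises the 665/620 nm ratio. Compound (0.8 nM–16.5 μM) added to EP2 cells 20 min at RT before 60 min PGE2 challenge (3× stock 1.5 nM) with IBMX, followed by 20 min lysis.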

[3] = biological target: T1, human PGD receptor (Homo sapiens, UniProt Q13258); assay: cAMP antagonism test on the human prostaglandin D receptor (HTRF cAMP detection); conditions: selectivity towards hDP, IC50 measured by cAMP antagonism test
T1 sequence (Q13258 1-359): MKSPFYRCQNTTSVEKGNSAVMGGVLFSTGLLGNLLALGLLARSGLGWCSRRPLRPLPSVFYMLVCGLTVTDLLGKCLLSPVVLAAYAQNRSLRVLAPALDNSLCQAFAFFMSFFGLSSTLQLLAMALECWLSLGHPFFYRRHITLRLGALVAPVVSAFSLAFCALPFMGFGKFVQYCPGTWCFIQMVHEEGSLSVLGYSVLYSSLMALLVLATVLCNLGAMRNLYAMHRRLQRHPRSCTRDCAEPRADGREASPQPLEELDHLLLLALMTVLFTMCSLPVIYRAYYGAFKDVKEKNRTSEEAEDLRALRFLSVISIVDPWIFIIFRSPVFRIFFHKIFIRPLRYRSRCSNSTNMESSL
Outline: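 HTRF competition read-out (665/620 nm ratio ×10000), where higher FRET means less cAMP, i.e. antagonism. Compounds (0.8 nM–16.5 μM) were preincubated 20 min at RT with cells and cAMP-d2, PGD2 (3× solution, 6 nM) in IBMX-containing PBS added for 30 min at RT, then cells lysed 20 min.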

Sequence of EP4 subtype of the human PGE2 receptor (P35408 whole entry): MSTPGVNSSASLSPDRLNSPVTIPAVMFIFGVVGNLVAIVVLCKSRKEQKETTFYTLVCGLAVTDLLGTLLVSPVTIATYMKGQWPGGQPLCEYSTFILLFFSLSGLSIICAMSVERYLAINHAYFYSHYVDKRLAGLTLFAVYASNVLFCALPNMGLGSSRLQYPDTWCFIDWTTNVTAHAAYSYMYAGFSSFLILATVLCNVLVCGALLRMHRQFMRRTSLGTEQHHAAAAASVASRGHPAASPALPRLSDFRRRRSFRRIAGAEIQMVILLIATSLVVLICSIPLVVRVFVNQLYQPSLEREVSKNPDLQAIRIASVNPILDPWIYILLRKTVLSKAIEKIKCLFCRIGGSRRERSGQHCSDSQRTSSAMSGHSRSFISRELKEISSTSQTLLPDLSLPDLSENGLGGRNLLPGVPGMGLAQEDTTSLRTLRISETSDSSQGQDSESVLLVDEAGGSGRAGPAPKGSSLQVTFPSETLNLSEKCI

| SMILES | Selectivity hEP2/hEP4 [1] | IC50 [2] | Selectivity hEP2/hDP [3] |
| --- | --- | --- | --- |
| Cc1c(C(=O)NCC(F)(F)F)ccc2nn(CC3CCN(C(=O)c4ccc(-c5cccc(C(F)(F)F)n5)cc4)CC3)cc12 [Example 329, 4-methyl-N-(2,2,2-trifluoroethyl)-2-[(1-{4-[6-(trifluoromethyl)pyridin-2-yl]-benzoyl}piperidin-4-yl)methyl]-2H-indazol-5-carboxamide] | xx (xx: 10-100) | 232 nM | xx (xx: 10-100) |
| COCCNC(=O)c1ccc2nn(CC3CCN(C(=O)c4nc5ccccc5n4C)CC3)cc2c1C [Example 338, N-(2-methoxyethyl)-4-methyl-2-({1-[(1-methyl-1H-benzimidazol-2-yl)carbonyl]-piperidin-4-yl}methyl)-2H-indazol-5-carboxamide] | xxx (xxx > 100) | 28 nM | xxx (xxx > 100) |
| COCCNC(=O)c1ccc2nn(CC3CCN(C(=O)c4ccc(OC)cc4)CC3)cc2c1C [Example 21, 2-{[1-(4-methoxy-benzoyl)piperidin-4-yl]methyl}-N-(2-methoxyethyl)-4-methyl-2H-indazol-5-carboxamide] | xxx (xxx > 100) | 35.8 nM | xxx (xxx > 100) |
| COCCNC(=O)c1ccc2nn(CC3CCN(C(=O)c4ccc(OC(C)(C)C)cc4)CC3)cc2c1C [Example 2, 2-({1-[4-tert-(butoxy)benzoyl]piperidin-4-yl}methyl)-N-(2-methoxyethyl)-4-methyl-2H-indazol-5-carboxamide] | xxx (xxx > 100) | 21.7 nM | xxx (xxx > 100) |
| Cc1c(C(=O)NCC(C)OCC2CC2)ccc2nn(CC3CCN(C(=O)c4ccc(Cl)cc4)CC3)cc12 (racemic) [Example 102, (+/−)-2-{[1-(4-chlorobenzoyl)piperidin-4-yl]methyl}-N-[2-(cyclopropylmethoxy)propyl]-4-methyl-2H-indazol-5-carboxamide] | xx (xx: 10-100) | 410 nM | xx (xx: 10-100) |
| Cc1cc2nn(CC3CCN(C(=O)c4ccc(C(F)(F)F)cc4F)CC3)cc2cc1C(=O)NCCN1CCOCC1 [Example 80, 2-({1-[2-fluoro-4-(trifluoromethyl)-benzoyl]piperidin-4-yl}-methyl)-6-methyl-N-(2-morpholinoethyl)-2H-indazol-5-carboxamide] | xxx (xxx > 100) | 85.9 nM | xxx (xxx > 100) |
| Cc1cc2nn(CC3CN(C(=O)c4ccc(OC(F)(F)F)cc4)C3)cc2cc1C(=O)NCCOC(F)(F)F [Example 196, 6-methyl-2-({1-[4-(trifluoromethoxy)benzoyl]azetidin-3-yl}methyl)-N-[2-(trifluoromethoxy)ethyl]-2H-indazol-5-carboxamide] | xxx (xxx > 100) | 50.8 nM | xxx (xxx > 100) |
| COCCNC(=O)c1cc2cn(CC3CCN(C(=O)c4ccc(Cl)cc4)CC3)nc2cc1C [Example 205, 2-{[1-(4-chlorobenzoyl)piperidin-4-yl]methyl}-N-(2-methoxyethyl)-6-methyl-2H-indazol-5-carboxamide] | xxx (xxx > 100) | 43.3 nM | xxx (xxx > 100) |
| Cc1c(C(=O)NCCOC(C)(C)C)ccc2nn(CC3CCN(C(=O)c4ccc(Oc5ccc(F)cc5)cc4)CC3)cc12 [Example 112, N-(2-tert-butoxyethyl)-2-({1-[4-(4-fluoro-phenoxy)benzoyl]-piperidin-4-yl}methyl)-4-methyl-2H-indazol-5-carboxamide] | xxx (xxx > 100) | 11.9 nM | xxx (xxx > 100) |
| Cc1c(C(=O)NCC2CCCCO2)ccc2nn(CC3CCN(C(=O)c4ccc(Cl)cc4)CC3)cc12 (racemic) [Example 239, (+/−)-2-{[1-(4-chlorobenzoyl)piperidin-4-yl]methyl}-4-methyl-N-(3,4,5,6-tetrahydro-2H-pyran-2-ylmethyl)-2H-indazol-5-carboxamide] | xxx (xxx > 100) | 27 nM | xxx (xxx > 100) |
